Laboratory results taken from article PMC6642608, “Putative trehalose biosynthesis proteins function as differential floridoside-6-phosphate synthases to participate in the abiotic stress response in the red alga Pyropia haitanensis” (BMC Plant Biology, 2019).

How the values were obtained:
Assay in all cases: HPLC-MS of products after alkaline phosphatase
Assay type in all cases: biochemical
Details in all cases: 100 mM UDP-galactose, 10 mM MgSO4, pH 8.0 protein buffer, 30 °C, 16 h
PhTPS3 = target: T1, PhTPS3 (Pyropia haitanensis, UniProt A0A0A7PA46)
T1 construct: E. coli BL21, pET-28a or pET-28a-sumo, His tag, sumo-His tag cut before assay; full-length ORF 1108 aa
T1 sequence (A0A0A7PA46 entry or part of it): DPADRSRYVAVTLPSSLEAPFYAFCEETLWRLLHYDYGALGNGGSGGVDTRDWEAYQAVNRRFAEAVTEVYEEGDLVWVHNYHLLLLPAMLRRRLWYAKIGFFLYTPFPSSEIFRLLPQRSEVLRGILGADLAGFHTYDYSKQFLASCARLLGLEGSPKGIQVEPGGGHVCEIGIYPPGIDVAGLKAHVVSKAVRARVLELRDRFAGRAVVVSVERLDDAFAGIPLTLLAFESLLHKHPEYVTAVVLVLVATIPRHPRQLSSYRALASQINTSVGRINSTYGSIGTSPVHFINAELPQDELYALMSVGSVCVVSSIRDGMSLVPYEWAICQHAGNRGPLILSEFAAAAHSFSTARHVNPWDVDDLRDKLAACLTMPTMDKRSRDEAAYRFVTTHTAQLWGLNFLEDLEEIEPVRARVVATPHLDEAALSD

PhTPS4 = target: T2, PhTPS4 (Pyropia haitanensis, UniProt U3GP00)
T2 construct: E. coli BL21, pET-28a or pET-28a-sumo, His tag, sumo-His tag cut before assay; full-length ORF 1008 aa with N-terminal CBM20
T2 sequence (U3GP00 entry or part of it): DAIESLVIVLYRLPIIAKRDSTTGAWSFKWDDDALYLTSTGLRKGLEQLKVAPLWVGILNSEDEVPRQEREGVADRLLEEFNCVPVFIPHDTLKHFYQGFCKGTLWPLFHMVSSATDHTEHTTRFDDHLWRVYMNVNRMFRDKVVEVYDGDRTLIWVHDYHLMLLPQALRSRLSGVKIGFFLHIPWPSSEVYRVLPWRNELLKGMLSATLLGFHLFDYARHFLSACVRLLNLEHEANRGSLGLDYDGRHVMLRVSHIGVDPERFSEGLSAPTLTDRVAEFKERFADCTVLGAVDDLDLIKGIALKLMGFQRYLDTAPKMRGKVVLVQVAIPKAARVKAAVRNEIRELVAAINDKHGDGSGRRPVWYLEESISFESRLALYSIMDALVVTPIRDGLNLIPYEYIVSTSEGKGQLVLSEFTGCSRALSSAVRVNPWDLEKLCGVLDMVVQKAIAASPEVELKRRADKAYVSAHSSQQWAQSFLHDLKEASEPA

PhTPS1 = target: T3, PhTPS1 (Pyropia haitanensis, UniProt T1UQ24)
T3 construct: E. coli BL21, pET-28a or pET-28a-sumo, His tag, sumo-His tag cut before assay; full-length ORF 1154 aa
T3 sequence (T1UQ24 entry or part of it): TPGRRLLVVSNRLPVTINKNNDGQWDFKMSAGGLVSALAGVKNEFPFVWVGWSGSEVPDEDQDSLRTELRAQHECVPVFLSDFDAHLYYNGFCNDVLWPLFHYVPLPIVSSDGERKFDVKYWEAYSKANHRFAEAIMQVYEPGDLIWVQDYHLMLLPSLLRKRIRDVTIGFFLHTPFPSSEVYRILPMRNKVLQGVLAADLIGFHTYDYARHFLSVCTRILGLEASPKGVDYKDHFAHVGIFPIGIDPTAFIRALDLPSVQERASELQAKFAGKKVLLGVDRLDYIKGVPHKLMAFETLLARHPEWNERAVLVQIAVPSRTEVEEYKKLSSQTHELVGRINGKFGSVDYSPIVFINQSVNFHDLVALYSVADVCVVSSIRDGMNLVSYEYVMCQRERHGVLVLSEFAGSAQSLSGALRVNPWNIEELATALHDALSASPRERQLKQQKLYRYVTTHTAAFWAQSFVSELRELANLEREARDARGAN

Q: What does the source list for O=P(O)(O)OC[C@H](O)CO [G3P]?
A: HPLC-MS of products after alkaline phosphatase (PhTPS3): UDP-Gal and G3P were allowed to react with them; HPLC-MS of products after alkaline phosphatase (PhTPS4): UDP-Gal and G3P were allowed to react with them; HPLC-MS of products after alkaline phosphatase (PhTPS1): UDP-Gal and G3P were allowed to react with them
